According to PubChem BioAssay AID1963957 (Xavier Lab, Infectious Disease and Microbiome Program, …, 2024):
The source made the active and inactive calls.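 How the source made its calls: active means significant rise in GFP-LC3 puncta area per cell versus the same autophagy-inducer co-treatment given without compound; inactive means the rest.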

Test system: HeLa GFP-LC3 puncta imaging, 4 h
Assay: autophagy induction measured as tagged microtubule-associated protein 1 light chain 3 foci, microscopic imaging, green fluorescent protein-light chain 3 HeLa reporter, with rapamycin or Torin1 co-treatment (AID 1963957)
Conditions: for puncta normalized to Torin1: at 20 µM, hits give high values

EC50 (no co-treatment) [µM]	EC50 (with Rapamycin) [µM]	EC50 (with Torin1) [µM]	SMILES	puncta normalized to Torin1 (no co-treatment)	puncta normalized to Torin1 (with Rapamycin)	puncta normalized to Torin1 (with Torin1)
			CCC(C)(C)C(=O)C(=O)N1CCCC[C@H]1C(=O)N[C@H](CCc1ccc(OC)cc1)C(=O)N1[C@@H]2CC[C@H]1CC(Nc1nc(NCCc3sc(N)nc3C)nc(NCCn3cnc4ccccc43)n1)C2 (stereo partly specified)	0.49	1.54	2.17
			CCC(C)(C)C(=O)C(=O)N1CCCC[C@H]1C(=O)N[C@H](CCc1ccc(OC)cc1)C(=O)N1[C@@H]2CC[C@H]1CC(Nc1nc(NCCc3sc(N)nc3C)nc(NCc3ccnc(CO)c3)n1)C2 (stereo partly specified)	0.14 (inactive)	1.02	1.59
12	11.5	29.3	CCC(C)(C)C(=O)C(=O)N1CCCC[C@H]1C(=O)N[C@H](CCc1ccc(OC)cc1)C(=O)N1[C@@H]2CC[C@H]1CC(Nc1nc(NCCc3sc(N)nc3C)nc(N3CCn4ncnc4C3)n1)C2 (stereo partly specified)			
			CS(C)=O	0 (inactive)		
			CCC(C)(C)C(=O)C(=O)N1CCCC[C@H]1C(=O)N[C@H](CCc1ccc(OC)cc1)C(=O)N1CC[C@H](Nc2nc(NCCc3sc(N)nc3C)nc(N(C)Cc3nnc4n3CCC4)n2)C1	-0.05 (inactive)	0.32 (inactive)	0.72 (inactive)
			CCC(C)(C)C(=O)C(=O)N1CCCC[C@H]1C(=O)N[C@H](CCc1ccc(OC)cc1)C(=O)N1CC(Nc2nc(NCCc3sc(N)nc3C)nc(NCCn3cnc4ccccc43)n2)C1	0.06 (inactive)	0.85	1.47 (inactive)
			CCC(C)(C)C(=O)C(=O)N1CCCC[C@H]1C(=O)N[C@H](CCc1ccc(OC)cc1)C(=O)N1[C@@H]2CC[C@H]1CC(Nc1nc(NCCc3sc(N)nc3C)nc(N(C)Cc3nnc4n3CCC4)n1)C2 (stereo partly specified)	0.13 (inactive)	0.68 (inactive)	0.98 (inactive)
			CCC(=O)N1CCN(c2ccc(-n3c(=O)ccc4cnc5ccc(-c6cnc7ccccc7c6)cc5c43)cc2C(F)(F)F)CC1			1
			CO[C@H]1C[C@@H]2CC[C@@H](C)[C@@](O)(O2)C(=O)C(=O)N2CCCC[C@H]2C(=O)O[C@H]([C@H](C)C[C@@H]2CC[C@@H](O)[C@H](OC)C2)CC(=O)[C@H](C)/C=C(\C)[C@@H](O)[C@@H](OC)C(=O)[C@H](C)C[C@H](C)\C=C/C=C/C=C/1C		0.39	
